Calls of active or inactive are those of the source. The rule behind the calls is not given here.
System: Mycobacterium tuberculosis starved, CFU count by imaging
Test: Mycobacterium tuberculosis starved, CFU count by imaging at 64 µM (AID 743163)
Conditions: stronger effect = lower value

Row | Structure (SMILES) | CFU (CFU at 64 uM, at 64 µM) [CFU] | CFU (at 10 µM)
1 | CCOc1ccc(OC(=O)c2ccc3c(=O)n4c(nc3c2)CCC4)cc1 | 3.25e+07 | 3.2e+07 CFU (inactive)
2 | CSc1nsc(SCc2ccc(C(=O)Nc3cccc(C)c3)cc2)n1 | 12600 | 1.1e+06 CFU
3 | CCOC(=O)c1cc(COc2c(Cl)cccc2Cl)on1 | 1.11e+06 | 3.08e+07 CFU
4 | c1ccc(-c2n[nH]c(-c3ccccn3)n2)nc1 | 1.91e+06 | 6.09e+06 CFU
5 | CCC(C)n1nnc2c(=O)oc3ccccc3c21 (stereo not drawn) | 3.22e+06 | 4.71e+06 CFU
6 | Cn1c(NC(=O)c2ccccc2)nc2ccccc21 | 0 | 0 CFU
7 | COc1ccc(CNC(=O)Nc2ncc([N+](=O)[O-])s2)cc1 | 204000 | 2.15e+06 CFU
8 | COc1ccc(CCNc2cc(-c3ccccc3)nc3ncnn23)cc1 | 2.5e+06 | 2.65e+06 CFU
9 | COC(=O)C(C)Oc1ccc2cc(-c3ccccc3)c(=O)oc2c1 (stereo not drawn) | 4.57e+06 | 3.2e+07 CFU (inactive)
